Data on 3 compounds can be found in patent US8759579B2, “Cyclobutyl sulfones as notch sparing gamma secretase inhibitors” (Merck Sharp & Dohme Corp., priority 2008, dated 2014).

Series [1] can be described thus: covalent protein binding assay with liver microsomes. It counts as in vitro ADME. The note with it: radiolabeled compound incubated with human liver microsomes. The method, then:
MRK-560 and Example 2 were tested in a covalent protein binding assay which is predictive of drug toxicity. The potential of drug candidates to cause covalent binding to proteins is evaluated by incubation of the radiolabeled version of the compound in question with liver microsomes. A semi-automated method based on Brandel Harvester technique is then used to measure the formation of covalent adducts of the test compound to liver proteins binding (Ref. Day et. al, J Pharmacol Toxicol Methods. 52, 278-85, 2005).
Background: Liver microsomes are vesicles of endoplasmic reticulum, rich in cytochrome P450 enzymes.

For series [2], the system named is APP and Notch processing pathway. The note with it: literature report; cited from earlier work.
Series [3] relates to ε/S3-site cleavage of γ-secretase substrates (APP-GVP, NotchΔE-GVP, E-cadherin-GVP, CD44-GVP). Put plainly: ICD transactivation assay (intracellular domain release of γ-secretase substrates). It counts as cell-based. The note with it: HEK cells, 1 μM, 48 hours. An excerpt:
ICD Transactivation (Assay Quantitates Intracellular Domain Release of a Panel of γ-Secretase Substrates in Cell Lines)
A Firefly luciferase based transactivation assay is used to measure inhibition of ε/S3-site cleavage of γ-secretase substrates. This assay involves the use of chimeric substrates harboring a GAL4/VP16 (GVP) transactivation domain fused to the intracellular domain (ICD): APP-GVP, NotchΔE-GVP, E-cadherin-GVP and CD44-GVP. Upon cleavage and release of ICDs, the GVP domain drives the expression of the luciferase gene under the control of the UAS promoter. In this assay, HEK cells were transiently co-transfected with the chimeric substrate along with a UAS promoter driven luciferase and β-galactosidase (transfection control). Upon cleavage by γ-secretase, the released ICD-GVP translocates to the nucleus to drive the expression of the UAS-luciferase gene. The activity of luciferase in these cells is directly proportional to the amount of γ-secretase-cleaved ICDs. Luciferase activity is determined by the standard techniques of luciferin addition to lysed cells and measurement of total luminescence. In addition, to account for the differences in transfection efficiencies an absorbance based β-galactosidase enzyme assay is performed to normalize the luminescence read-out.

Another series concerns Tg2576 mouse. The following applies: cited from earlier work.
Another series relates to γ-secretase complex. The experiment in a line: Compound binding assay (displacement of tritiated γ-secretase inhibitor tracers). The note with it: semi-purified γ-secretase complex, increasing concentrations. The method, then:
Compound Binding: (Assay Quantitates In Vitro Displacement of Bound γ-Secretase Inhibitor Tracers)
All radioligand binding experiments are performed using CHAPSO-solubilized HEK293 (gammaNRCF8) P2 membranes stably over expressing recombinant gamma secretase. For radioligand binding, solubilized enzyme is incubated in the presence of tritiated inhibitors. Nonspecific binding is determined by adding an excess of unlabeled inhibitor to the reaction, and serial dilutions of the tritiated ligands are used to obtain saturation binding isotherm. Bound ligand is separated from free ligand by adsorption of the enzyme complex to polyethyleneimine-coated glass fiber filter plates and rapid filtration in a cell harvester followed by washing. After drying plates, scintillant is added, and the plates are read on a Microplate Scintillation counter. Binding competition assay is performed by incubating serial dilutions of various inhibitors in the presence of 1 nM ^3H-labeled compound Reference Example L-458 (transition state inhibitor) or 4 nM ^3H-labeled compound Reference Example L-881 (non-transition state inhibitor). To determine the antagonist competitiveness of various inhibitors, respective ^3H tracer doss-response curves are analyzed in presence of different concentrations of these compounds.

Series [4] deals with T1, pregnane X receptor (PXR) (Homo sapiens, UniProt O75469).
T1 construct: expressed in transfected cells; host or cells: HEP G2
T1 sequence (O75469 1-434): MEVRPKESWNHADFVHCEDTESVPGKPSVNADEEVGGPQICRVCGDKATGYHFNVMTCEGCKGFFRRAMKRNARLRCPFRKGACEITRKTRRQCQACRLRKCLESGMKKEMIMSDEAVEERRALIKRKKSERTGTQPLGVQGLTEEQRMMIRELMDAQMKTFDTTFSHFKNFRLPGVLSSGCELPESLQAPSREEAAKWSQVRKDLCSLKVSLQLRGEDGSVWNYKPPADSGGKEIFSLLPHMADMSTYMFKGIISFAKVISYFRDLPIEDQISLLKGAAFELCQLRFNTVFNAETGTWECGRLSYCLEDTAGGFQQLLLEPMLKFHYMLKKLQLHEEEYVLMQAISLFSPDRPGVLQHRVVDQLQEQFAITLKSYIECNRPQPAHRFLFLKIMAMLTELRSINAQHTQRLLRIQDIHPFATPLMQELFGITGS
T1 sequence (P19793 1-462 partner): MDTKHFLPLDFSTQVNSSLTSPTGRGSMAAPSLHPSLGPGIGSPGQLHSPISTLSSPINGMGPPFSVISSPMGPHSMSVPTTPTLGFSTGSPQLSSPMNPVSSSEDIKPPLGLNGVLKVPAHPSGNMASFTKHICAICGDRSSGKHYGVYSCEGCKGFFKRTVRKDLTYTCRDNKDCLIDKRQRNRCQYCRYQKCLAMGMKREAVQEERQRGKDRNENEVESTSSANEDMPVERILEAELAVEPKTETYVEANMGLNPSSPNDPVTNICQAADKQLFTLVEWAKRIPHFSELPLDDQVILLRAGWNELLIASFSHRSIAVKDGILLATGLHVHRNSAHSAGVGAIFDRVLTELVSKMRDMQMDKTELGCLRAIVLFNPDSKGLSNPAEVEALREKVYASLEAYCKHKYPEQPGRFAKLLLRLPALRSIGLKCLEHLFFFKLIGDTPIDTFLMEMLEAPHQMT
The experiment in a line: PXR assay (CYP3A4-SEAP transactivation assay, PCSTA). The following applies: for EC50: HEP G2 cells. It counts as cell-based. An excerpt: The CYP3A4-SEAP transactivation assay (PCSTA) effectively and rapidly evaluates compounds for their potential to induce cytochrome P450 CYP3A (human CYP3A4 or rat CYP3A1). The reporter construct contains regulatory regions from the CYP3A4 gene positioned just upstream of a secreted alkaline phosphatase (SEAP) gene. The human PXR nuclear receptor has been modified at the 5′-end so that methionine is the initiating amino acid replacing leucine found in the wild-type sequence. HEP G2 cells are transfected with the PXR plasmid (human or rat) and the reporter plasmid. Read-out for the induction of CYP3A4 consists of a SEAP calorimetric assay with para-nitro-phenyl phosphate (pNPP) as the substrate. Five point dose-response curves in duplicate are then generated with each point corresponding to the rate of conversion of pNPP to pNP by SEAP. For the human PCSTA, rifampicin is used as the positive control and 100% induction is based upon the maximum induction produced by rifampicin at 10 μM.

In series [5] the test system is γ-secretase substrates NotchΔE, E-cadherin, SCN2b and CD43 in HEK293 cells. The experiment in a line: Full length γ-secretase substrates, immunoblot of cell lysates. The class given is cell-based. The following applies: titrated concentrations with TPA. The procedure: Assessing Full Length γ-Secretase Substrates (Assay Qualitatively Assesses the Processing of a Panel of γ-Secretase Substrates)
Cells are plated and treated overnight with titrated compound and the phorbol ester, TPA. Since all of the proteins undergo regulated membrane proteolysis characterized by an initial ectodomain shedding event followed by the intramembraneous cleavage of the […] fragment (CTF) by γ-secretase, TPA induces the initial cleavage event producing the substrate for γ-secretase. The effect of compounds on γ-secretase activity in relation to these substrates is measured by tracking the processing of the V5 tagged CTFs by Western blot analysis. Accumulation of the CTFs indicates inhibition of γ-secretase activity.
(Immunoblotting shows a protein as a band on a membrane.)

Series [6] deals with Aβ40 peptides generated from SH-SY5Y cells expressing amyloid β protein (SP4CT cells). The experiment in a line: APP processing AlphaLisa assay, secreted Aβ40. It counts as cell-based. The note with it: Homo sapiens, SH-SY5Y, average of at least >4 replicates, read-out: AB40 IC50 AVG. The method, then:
(§1) APP Processing (Assay Quantitates Secreted Aβ Analytes from Cell Lines):
(§2) The effect of compounds on the abundance of Aβ40 and Aβ42 peptides generated from SH-SY5Y cells expressing amyloid β protein (SP4CT cells) was determined by an AlphaLisa™ assay. Analogous to an ELISA assay, generation of signal in this AlphaLisa™ assay requires “donor” and “acceptor” beads to be brought in close proximity by specific antibody recognition of either Aβ40 or Aβ42 peptides. The assay was accomplished by removing media from compound-treated SP4CT cells to two different microplates, followed by the addition of donor beads conjugated with streptavidin binding a biotinylated anti-amyloid β monoclonal antibody (clone 4G8). Acceptor beads directly conjugated with anti-Aβ40 monoclonal antibody (G210) were added to one microplate and anti-Aβ42 monoclonal antibody (12F4) acceptor beads were added to the other. Abundance of Aβ40 and Aβ42 was directly proportional to the luminescent signal generated following excitation of donor beads by laser light.
(Bead proximity is the source of the signal in Alpha formats.)

The test system of series [7] is Aβ42 peptides generated from SH-SY5Y cells expressing amyloid β protein (SP4CT cells). The experiment in a line: APP processing AlphaLisa assay, secreted Aβ42. It counts as cell-based. The following applies: Homo sapiens, SH-SY5Y, average of at least >4 replicates, read-out: AB42 IC50 AVG. The procedure: as §1, §2
Series [8] relates to gamma secretase-dependent cleavage of the Notch protein (NotchΔE) in HeLa cells. The experiment in a line: Notch processing split-luciferase assay (Notch intracellular domain release). It counts as cell-based. The note with it: Homo sapiens, HeLa, average of at least >4 replicates, read-out: Notch IC50 AVG. An excerpt:
Notch Processing: (Assay Quantitates Notch Intracellular Domain Release in Cell Lines):
A “split-luciferase” assay is used to measure inhibition of gamma secretase-dependent cleavage of the Notch protein. In this assay, HeLa cells were made to express a Notch protein lacking its extracellular domain (NotchΔE) fused to an N-terminal fragment of luciferase. The same cells also expressed a C-terminal fragment of luciferase fused to the immunoglobulin J kappa recombination signal sequence binding protein (RBP). Upon NotchΔE cleavage by gamma secretase, a Notch intracellular domain (NICD)-N terminal luciferase protein is generated which translocates to the nucleus and binds the RBP-C terminal luciferase fusion, bringing two independently nonfunctional halves of luciferase together to form a functional luciferase enzyme. The activity of luciferase in these cells is directly proportional to the amount of gamma secretase-cleaved Notch. Luciferase activity is determined by the standard techniques of luciferin addition to lysed cells and measurement of total luminescence.

Entries after “also recorded” stand apart in the source; their conditions may differ.

For `O=S(=O)(NC1CCC(c2cc(F)ccc2F)(S(=O)(=O)c2ccc(Cl)cc2)CC1)C(F)(F)F` (stereo not drawn) [MRK-560], the “covalent protein binding (human microsomes)” value in series [1] stood at 1308 pmol/mg. Besides, the “separation between in vitro inhibition of APP and Notch processing pathway” value in [2] is on record as “little or no separation”. In addition, the “ICD release of γ-secretase substrates (ε/S3-cleavage)” value in series [3] is given as “inhibited ICD release of all examined substrates”. In the series with Tg2576 mouse, the “effects on amyloid plaque deposition” value is listed as “beneficial effects on amyloid plaque deposition” and the “toxicity related to changes in the Notch signaling pathway” value is reported as “absence of toxicity”. Further, in the series on γ-secretase complex, the “displacement of tritiated tracer L-458 (transition state)” value is listed as “partial” and the “displacement of tritiated tracer L-881 (non transition state)” value is recorded as “full”. Moreover, the EC50 in series [4] amounted to 617 nM. For the same compound, the “accumulation of CTFs (immunoblot)” value in series [5] (HEK293 cells overexpressing E-cadherin, SCN2b, CD43) was “caused accumulation of CTFs; also recorded: SCN2b-, ECAD- and CD43-CTF accumulation”. The “NICD generation (immunoblot)” value in series [5] (HEK293 cells overexpressing NotchΔE) is listed as “inhibited NICD generation”.

As to `O=S(=O)(N[C@H]1C[C@@](c2cc(F)ccc2F)(S(=O)(=O)c2ccc(Cl)cc2)C1)C(F)(F)F` [Example 2, N-[cis-3-[(4-chlorophenyl)sulfonyl]-3-(2,5-difluorophenyl)cyclobutyl]-1,1,1-trifluoromethanesulfonamide], the figures for the IC50 in series [6], in series [7] and in [8] were 42.8 nM, 38.4 nM and 3480 nM, respectively. In addition, the “covalent protein binding (human microsomes)” value in series [1] is reported as 380 pmol/mg. In [4], the “PXR % Activation @ 10 uM” value came out at 55.5%. The concentration giving a half-maximal response (EC50) in [4] was determined as 3430 nM.

With `CC1(NS(=O)(=O)C(F)(F)F)CC(c2cc(F)ccc2F)(S(=O)(=O)c2ccc(C(F)(F)F)cc2)C1` (stereo not drawn) [Example 18, N-(cis-3-(2,5-difluorophenyl)-1-methyl-3-{[4-(trifluoromethyl)phenyl]sulfonyl}cyclobutyl)-1,1,1-trifluoromethanesulfonamide], the half-inhibitory concentration (IC50) was found to be 60.8 nM in series [6], 65.4 nM in [7] and 4470 nM in series [8]. Besides, the “PXR % Activation @ 10 uM” value in [4] turned out to be 75.5%. Moreover, the midpoint of the response in [4], the EC50, lay at 3090 nM.

In general, EC50 refers to the midpoint of the concentration-response curve. A high value points to weaker potency. The term IC50 denotes the point on the concentration scale where inhibition reaches its midpoint.
